Reference: patent US4971967A, “Quinolinecarboxylic acid derivatives, antibacterial compositions and use” (Kanebo Ltd, priority 1989, dated 1990)
Values after ≈ are worked out from the molar mass of the structure shown. Structures can show the parent of a compound that is named as a salt. Where two headings read alike, the source gives them in different places.

Experiments:
Type in all cases: cell-based
[1] = system: Staphylococcus aureus FDA 209P JC-1; experiment: Antibacterial activity (MIC), S. aureus FDA 209P JC-1; conditions: FDA209P, read-out: Minimum inhibitory concentration (MIC)
Procedure: (§1) The compounds of the present invention (A, C, D, E, F, G, H, I, J, L, O and P) and the known compound (X) as reference were dissolved in 0.1 N aqueous sodium hydroxide to prepare a solution of 5000 μg/ml in concentration. The compounds of the present invention (B, K, M and N) and the known compound (Y) were dissolved in sterilized distilled water to prepare a solution of 5000 μg/ml in concentration. Each solution was diluted with sterilized distilled water to prepare a standard solution with a concentration of each test compound: 1000 μg/ml. The test was carried out by a method as appointed by Japan Society of Chemotherapy [cf. Chemotherapy, 29, 76-79 (1981)(TOKYO)].

[2] = system: Staphylococcus aureus IID 803; experiment: Antibacterial activity (MIC), S. aureus IID 803
Procedure: as §1

[3] = system: Proteus mirabilis IFO 3849; experiment: Antibacterial activity (MIC), Proteus mirabilis IFO 3849; conditions: IFO3849; Proteus mirabilis IFO 3849, Gram -; read-out: Minimum inhibitory concentration (MIC)
Procedure: as §1

Escherichia coli KC-14 = experiment: Antibacterial activity (MIC), E. coli KC-14; conditions: KC14; Escherichia coli KC-14, Gram -; read-out: Minimum inhibitory concentration (MIC)
Procedure: as §1

[4] = system: Serratia marcescens IAM 1184; experiment: Antibacterial activity (MIC), Serratia marcescens IAM 1184; conditions: Serratia marcescens, IAM1184, Serratia marcescens IAM 1184, Gram -; read-out: Minimum inhibitory concentration (MIC)
Procedure: as §1

Shigella sonnei EW-33 = experiment: Antibacterial activity (MIC), Shigella sonnei EW-33; conditions: Shigella sonnei, EW33, Shigella sonnei EW-33, Gram -; read-out: Minimum inhibitory concentration (MIC)
Procedure: as §1

Proteus vulgaris OX-19 = experiment: Antibacterial activity (MIC), Proteus vulgaris OX-19; conditions: OX19; Proteus vulgaris OX-19, Gram -; read-out: Minimum inhibitory concentration (MIC)
Procedure: as §1

[5] = system: Pseudomonas aeruginosa NCTC 10490; experiment: Antibacterial activity (MIC), P. aeruginosa NCTC 10490; conditions: Pseudomonas aeruginosa, NCTC10490, Pseudomonas aeruginosa NCTC 10490, Gram -; read-out: Minimum inhibitory concentration (MIC)
Procedure: as §1

[6] = system: Escherichia coli NIHJ JC-2; experiment: Antibacterial activity (MIC), E. coli NIHJ JC-2; conditions: NIHJJC2; Escherichia coli NIHJ JC-2, Gram -; read-out: Minimum inhibitory concentration (MIC)
Procedure: as §1

[7] = system: Pseudomonas aeruginosa IFO 3445; experiment: Antibacterial activity (MIC), P. aeruginosa IFO 3445; conditions: Pseudomonas aeruginosa, IFO3445, Pseudomonas aeruginosa IFO 3445, Gram -; read-out: Minimum inhibitory concentration (MIC)
Procedure: as §1

[8] = system: Streptococcus faecalis IID 682; experiment: Antibacterial activity (MIC), Streptococcus faecalis IID 682; conditions: for MIC: Enterococcus faecalis, IID682, Streptococcus faecalis IID 682, Gram +, read-out: Minimum inhibitory concentration (MIC)
Procedure: as §1

[9] = system: Pseudomonas aeruginosa E-2; experiment: Antibacterial activity (MIC), P. aeruginosa E-2; conditions: E2; Pseudomonas aeruginosa E-2, Gram -; read-out: Minimum inhibitory concentration (MIC)
Procedure: as §1

[10] = system: Bacillus subtilis ATCC 6633; experiment: Antibacterial activity (MIC), Bacillus subtilis ATCC 6633; conditions: Bacillus subtilis, ATCC6633, Bacillus subtilis ATCC 6633, Gram +; read-out: Minimum inhibitory concentration (MIC)
Procedure: as §1

[11] = system: Enterobacter aerogenes ATCC 13048; experiment: Antibacterial activity (MIC), Enterobacter aerogenes ATCC 13048; conditions: Klebsiella aerogenes, ATCC13048; Enterobacter aerogenes ATCC 13048, Gram -; read-out: Minimum inhibitory concentration (MIC)
Procedure: as §1

[12] = system: Salmonella typhimurium IID 971; experiment: Antibacterial activity (MIC), Salmonella typhimurium IID 971; conditions: Salmonella enterica; Salmonella typhimurium IID 971, Gram -; read-out: Minimum inhibitory concentration (MIC)
Procedure: as §1

Enterobacter cloacae 963 = experiment: Antibacterial activity (MIC), Enterobacter cloacae 963; conditions: Enterobacter cloacae, 963, Enterobacter cloacae 963, Gram -; read-out: Minimum inhibitory concentration (MIC)
Procedure: as §1

[13] = system: Citrobacter freundii NIHJ 10018-68; experiment: Antibacterial activity (MIC), Citrobacter freundii NIHJ 10018-68; conditions: Citrobacter freundii, NIHJ10018, Citrobacter freundii NIHJ 10018-68, Gram -; read-out: Minimum inhibitory concentration (MIC)
Procedure: as §1

[14] = system: Morganella morganii IFO 3848; experiment: Antibacterial activity (MIC), Morganella morganii IFO 3848; conditions: for MIC: Morganella morganii, IFO3848, Morganella morganii IFO 3848, Gram -, read-out: Minimum inhibitory concentration (MIC)
Procedure: as §1

[15] = system: Micrococcus luteus ATCC 9341; experiment: Antibacterial activity (MIC), Micrococcus luteus ATCC 9341; conditions: ATCC9341; Micrococcus luteus ATCC 9341, Gram +; read-out: Minimum inhibitory concentration (MIC)
Procedure: as §1

[16] = system: Klebsiella pneumoniae PCI-602; experiment: Antibacterial activity (MIC), Klebsiella pneumoniae PCI-602; conditions: PCI602; Klebsiella pneumoniae PCI-602, Gram -; read-out: Minimum inhibitory concentration (MIC)
Procedure: as §1

[17] = system: Staphylococcus epidermidis IAM-1296; experiment: Antibacterial activity (MIC), S. epidermidis IAM-1296; conditions: Staphylococcus epidermidis, IAM1296, Staphylococcus epidermidis IAM-1296, Gram +; read-out: Minimum inhibitory concentration (MIC)
Procedure: as §1

[18] = system: Acinetobacter calcoaceticus AC 54; experiment: Antibacterial activity (MIC), Acinetobacter calcoaceticus AC 54; conditions: AC54; Acinetobacter calcoaceticus AC 54, Gram -; read-out: Minimum inhibitory concentration (MIC)
Procedure: as §1

Compound	MIC [3] [µg/mL]	MIC (Escherichia coli KC-14) [µg/mL]	MIC [4] [µg/mL]	MIC (Shigella sonnei EW-33) [µg/mL]	MIC (Proteus vulgaris OX-19) [µg/mL]	MIC [5] [µg/mL]	MIC [6] [µg/mL]	MIC [7] [µg/mL]	MIC [8] [µg/mL]	MIC [9] [µg/mL]	MIC [10] [µg/mL]	MIC [11] [µg/mL]	MIC [12] [µg/mL]	MIC (Enterobacter cloacae 963) [µg/mL]	MIC [13] [µg/mL]	MIC [14] [µg/mL]	MIC [15] [µg/mL]	MIC [16] [µg/mL]	MIC [17] [µg/mL]	MIC [18] [µg/mL]	other results
CN1Cc2csc3c(C(=O)O)c(=O)c4cc(F)c(N5CCN(O)CC5)c1c4n23 [Compound (L), 9,1-(Methylimino)methano-7-fluoro-8-(4-hydroxy-1-piperazinyl)-5-oxo-5H-thiazolo[3,2-a]quinoline-4-carboxylic acid]	0.2 (≈ 0.495 µM)	0.1 (≈ 0.247 µM)	0.78 (≈ 1.93 µM)	0.05 (≈ 0.124 µM)	0.0125 (≈ 0.0309 µM)	0.39 (≈ 0.964 µM)	0.1 (≈ 0.247 µM)	0.78 (≈ 1.93 µM)	0.1 (≈ 0.247 µM)	0.78 (≈ 1.93 µM)	0.0125 (≈ 0.0309 µM)	0.1 (≈ 0.247 µM)	0.1 (≈ 0.247 µM)	0.1 (≈ 0.247 µM)	0.39 (≈ 0.964 µM)	0.1 (≈ 0.247 µM)	0.78 (≈ 1.93 µM)	0.006 (≈ 0.0148 µM)	0.1 (≈ 0.247 µM)	0.025 (≈ 0.0618 µM)	MIC ([1]; Staphylococcus aureus): 0.05 µg/mL (≈ 0.124 µM); MIC ([2]; Staphylococcus aureus, IID803, read-out: Minimum inhibitory concentration (MIC)): 0.05 µg/mL (≈ 0.124 µM)
CN1Cc2csc3c(C(=O)O)c(=O)c4cc(F)c(N5CCNCC5)c1c4n23 [Compound (C), 9,1-(Methylimino)methano-7-fluoro-8-(1-piperazinyl)-5-oxo-5H-thiazolo[3,2-a]quinoline-4-carboxylic acid]	0.1 (≈ 0.257 µM)	0.05 (≈ 0.129 µM)	0.2 (≈ 0.515 µM)	0.025 (≈ 0.0644 µM)	0.006 (≈ 0.0154 µM)	0.2 (≈ 0.515 µM)	0.05 (≈ 0.129 µM)	0.39 (≈ 1 µM)	0.05 (≈ 0.129 µM)	0.39 (≈ 1 µM)	0.006 (≈ 0.0154 µM)	0.05 (≈ 0.129 µM)	0.05 (≈ 0.129 µM)	0.05 (≈ 0.129 µM)	0.1 (≈ 0.257 µM)	0.05 (≈ 0.129 µM)	0.39 (≈ 1 µM)	0.006 (≈ 0.0154 µM)	0.05 (≈ 0.129 µM)	0.025 (≈ 0.0644 µM)	MIC ([1]; Staphylococcus aureus FDA 209P JC-1, Gram +): 0.05 µg/mL (≈ 0.129 µM); MIC ([2]; IID803, Staphylococcus aureus IID 803, Gram +, read-out: Minimum inhibitory concentration (MIC)): 0.05 µg/mL (≈ 0.129 µM)
CCN1CCN(c2c(F)cc3c(=O)c(C(=O)O)c4scc5n4c3c2N(C)C5)CC1 [Compound (K), 9,1-(Methylimino)methano-7-fluoro-8-(4-ethyl-1-piperazinyl)-5-oxo-5H-thiazolo[3,2-a]quinoline-4-carboxylic acid hydrochloride]		0.05											0.05							0.05	Minimum inhibitory concentration (MIC) ([8]; Streptococcus faecalis IID 682, Gram +, hydrochloride): 0.20 µg/mL; Minimum inhibitory concentration (MIC) ([14]; Morganella morganii IFO 3848, Gram -, hydrochloride): 0.20 µg/mL
